These are literature values, as cited in patent US20040208936A1, “Novel compositions” (priority 2002, published 2004).

The subject of the data set is S pneumoniae. To be noted: some 10% of pneumococci.

≈ marks a conversion by molar mass, not a printed value.

The MIC is the least concentration at which growth counts as inhibited. As to `CC1(C)S[C@@H]2[C@H](NC(=O)[C@H](N)c3ccc(O)cc3)C(=O)N2[C@H]1C(=O)O` [Amoxicillin], the MIC is 2 µg/mL (≈ 5.47 µM).
